Test results published in article PMC5754216 (ACS infectious diseases, 2016).
“Also recorded” adds a separate entry of the source. Structures can show the parent of a compound that is named as a salt.

Tests used:
[1] = system: HeLa cells; conditions: 10 µM
[2] = in vitro; conditions: human
[3] = molecular target: PV RNA-dependent RNA polymerase 3Dpol (Poliovirus type 1, UniProt P03300); type: biochemical
[4] = system: WT-PV (wild type PV Mahoney); type: cell-based, poliovirus; conditions: 25 μM, 48 h
[5] = system: Vero cells; assay: Viability of Vero cells; type: cell-based; conditions: 0.1 μM
[6] = type: in vivo; conditions: rhesus macaques, pilot PK studies
[7] = system: Sb-GLuc; type: cell-based, poliovirus
[8] = system: Sb-Gluc (modified PV expressing Gaussia Luciferase); type: cell-based, poliovirus; conditions: for Ec (%), inhibitory effect on poliovirus replication: 10 µM
[9] = system: WT-PV (wild type PV Mahoney); assay: microbe, parasite or virus in culture; type: cell-based, poliovirus
[10] = system: 293T cells; assay: Cytotoxicity in 293T cells; type: cell-based; conditions: up to 100 μM

Sequence of PV RNA-dependent RNA polymerase 3Dpol (P03300 1749-2209 limits assumed): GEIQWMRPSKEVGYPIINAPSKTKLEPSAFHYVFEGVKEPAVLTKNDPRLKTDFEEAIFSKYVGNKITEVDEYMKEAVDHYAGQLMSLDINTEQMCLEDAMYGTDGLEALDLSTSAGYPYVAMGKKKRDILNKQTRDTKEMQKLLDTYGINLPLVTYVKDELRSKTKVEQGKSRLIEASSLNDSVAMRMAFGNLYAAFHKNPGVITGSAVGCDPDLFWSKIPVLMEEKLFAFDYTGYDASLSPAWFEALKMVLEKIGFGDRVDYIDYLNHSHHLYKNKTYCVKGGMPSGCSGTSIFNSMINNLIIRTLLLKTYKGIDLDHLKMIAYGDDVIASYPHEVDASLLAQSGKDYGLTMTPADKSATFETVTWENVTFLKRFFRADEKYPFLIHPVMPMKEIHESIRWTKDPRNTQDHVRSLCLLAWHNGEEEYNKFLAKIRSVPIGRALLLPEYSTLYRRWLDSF

In the case of `Nc1nc(O)c2[nH]nnc2n1` [azaguanine-8], the “Vc (%), cell viability rate on HeLa cells” value (“Vc (%), cell viability rate” for short) [1] is reported as 47.54%.

`CCCC1C(=O)N2C(N(C)C)=Nc3ccc(C)cc3N2C1=O` (stereo not drawn) [azapropazone] showed a viability at 10 µM [2] of 91.2%.

In the case of `CC(=O)O[C@]1(C(C)=O)CC[C@H]2[C@@H]3C=C(Cl)C4=CC(=O)[C@@H]5C[C@@H]5[C@]4(C)[C@H]3CC[C@@]21C` [cyproterone acetate], the viability at 10 µM [2] is reported as 75.4%.

With `Nc1ccn([C@@H]2O[C@H](COP(=O)(O)OP(=O)(O)OP(=O)(O)O)[C@@H](O)C2(F)F)c(=O)n1` [dFdC-TP, 2′,2′-difluoro-2′-deoxycytidine triphosphate] the “Inhibition of dsRNA elongation” value [3] was “apparent inhibition; also recorded: weak inhibition” and the “Inhibition of dsRNA synthesis or elongation” value [3] was “complete inhibition”.

`CCOc1ccc(Cc2nccc3cc(OCC)c(OCC)cc23)cc1OCC` [ethaverine hydrochloride] showed a viability at 10 µM [2] of 88.4%.

Work on `COc1cc2ncnc(Nc3ccc(F)c(Cl)c3)c2cc1OCCCN1CCOCC1` [gefitinib] yielded a viability at 10 µM [2] of 80.1%.

With `Nc1ccn([C@@H]2O[C@H](CO)[C@@H](O)C2(F)F)c(=O)n1` [gemcitabine, 2′,2′-difluoro-2′-deoxycytidine] the “Protection of HeLa cells from WT-PV (plaque assay)” value (“Protection of HeLa cells from WT-PV” for short) [4] was “completely protected”, the viability at 10 µM [2] was 87.9% and the “Effect on Vero cells” value [5] was “kills Vero cells”. For the same compound, the “Impact on immune cell counts and liver/kidney functions” value [6] was “subtle and reversible impact”, the “Inhibition of Sb-GLuc replication in 293T cells” value [7] was “inhibited Sb-GLuc replication” and the IC50 ([8]; read-out: IC50 against Sb-GLuc on the basis of luminescent signal) was 2600 nM. The “Increase in viral RNA copies of WT-PV” value [9] was “No noticeable increase”, the inhibition at 2 µM ([9]; Enterovirus C, HeLa, read-out: Inhibition on WT-PV replication) was greater than 90% and the “Cytotoxic effect in 293T cells” value [10] was “without cytotoxic effect”.

With `CCC(C)n1ncn(-c2ccc(N3CCN(c4ccc(OCC5COC(Cn6cncn6)(c6ccc(Cl)cc6Cl)O5)cc4)CC3)cc2)c1=O` (stereo not drawn) [itraconazole] the “Protection of HeLa cells from WT-PV” value [4] was “partial protective effect” and the viability at 10 µM [2] was 79.4%.

With `CC(=O)N1CCN(c2ccc(OCC3COC(Cn4ccnc4)(c4ccc(Cl)cc4Cl)O3)cc2)CC1` (stereo not drawn) [ketoconazole] the “Protection of HeLa cells from WT-PV” value [4] was “partial protective effect” and the viability at 10 µM [2] was 103%.

In the case of `NC[C@H]1O[C@H](O[C@H]2[C@H](O[C@@H]3O[C@H](CO)[C@@H](O)[C@H]3O)[C@@H](O)[C@H](N)C[C@@H]2N)[C@H](N)[C@@H](O)[C@@H]1O.O=S(=O)(O)O` [ribostamycin sulfate salt], the “Ec (%), inhibitory effect on poliovirus replication” value (from here on “Ec (%), inhibitory effect”) [8] is reported as 81.9% and the “Vc (%), cell viability rate” value [1] is reported as 88.8%.

`C=C(NC(=O)C(=C)NC(=O)c1csc(C2=N[C@@H]3c4csc(n4)[C@H]4NC(=O)c5csc(n5)[C@H]([C@](C)(O)[C@@H](C)O)NC(=O)[C@H]5CSC(=N5)/C(=C/C)NC(=O)[C@H]([C@@H](C)O)NC(=O)c5csc(n5)[C@]3(CC2)NC(=O)[C@H](C)NC(=O)C(=C)NC(=O)[C@H](C)NC(=O)[C@H]([C@@H](C)CC)N[C@@H]2C=Cc3c([C@H](C)O)cc(nc3[C@H]2O)C(=O)O[C@@H]4C)n1)C(N)=O` [thiostrepton] gave a viability at 10 µM [2] of 87.9%.

In the case of `Cl.Cl.OCCN1CCN(CC/C=C2/c3ccccc3Sc3ccc(Cl)cc32)CC1` [zuclopenthixol hydrochloride], the “Ec (%), inhibitory effect” value [8] is reported as 81.8% and the “Vc (%), cell viability rate” value [1] is reported as 92.0%.

In the case of meclocycline sulfosalicylate, the “Ec (%), inhibitory effect” value [8] is reported as 82.1% and the “Vc (%), cell viability rate” value [1] is reported as 81.5%.
